The target of experiment [1] is T1, Recombinant STAT6 protein (STAT6 (W123-T658)) (Homo sapiens, UniProt P42226).
T1 construct: Recombinant STAT6 protein (STAT6 (W123-T658))
T1 sequence (P42226 123-658): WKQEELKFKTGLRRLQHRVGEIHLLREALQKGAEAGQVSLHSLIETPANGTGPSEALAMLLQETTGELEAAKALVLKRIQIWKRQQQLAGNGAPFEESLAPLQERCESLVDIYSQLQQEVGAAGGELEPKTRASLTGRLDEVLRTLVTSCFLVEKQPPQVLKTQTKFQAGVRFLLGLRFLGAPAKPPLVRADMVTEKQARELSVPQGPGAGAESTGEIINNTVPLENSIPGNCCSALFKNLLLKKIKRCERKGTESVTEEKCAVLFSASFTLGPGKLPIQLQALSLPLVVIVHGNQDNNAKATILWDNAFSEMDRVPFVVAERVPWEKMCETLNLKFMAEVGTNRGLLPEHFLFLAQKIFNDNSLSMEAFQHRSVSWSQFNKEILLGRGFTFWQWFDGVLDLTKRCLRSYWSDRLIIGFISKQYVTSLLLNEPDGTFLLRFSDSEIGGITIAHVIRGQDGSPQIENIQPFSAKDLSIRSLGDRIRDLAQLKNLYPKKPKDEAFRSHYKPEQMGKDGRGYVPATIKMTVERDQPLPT
Put plainly: STAT6 Fluorescence Polarization (FP) Assay. The class given is binding. Particulars: STAT6 (W123-T658) 250 nM, probe 5-FAM-Ap[…]-NH2 2 nM, 45-minute incubation; read-out: STAT6 (FP assay IC50 class). A digest of the protocol:
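Displacement of a fluorescent phosphotyrosine peptide (2 nM) from 250 nM STAT6 (W123-T658) is measured by polarization after a 45-minute room-temperature incubation. Compounds are titrated serially at 1% DMSO, and IC50 values derive from regression of mP on log concentration.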
For orientation: Polarisation of emitted light reports the rotation of a fluorescent probe.

Experiment [2] has as its target T2, Recombinant STAT3 protein (STAT3 (G127-I722)) (Homo sapiens, UniProt P40763).
T2 construct: Recombinant STAT3 protein (STAT3 (G127-I722))
Put plainly: STAT3 Fluorescence Polarization (FP) Assay. The class given is binding. Particulars: STAT3 (G127-I722) 25 nM, probe 5-FAM-GpYLPQTV-NH2 2 nM, 45-minute incubation; read-out: STAT3 (FP assay IC50 class). In a few lines: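 Compounds in serial dilution receive a premix of STAT3 (G127-I722, 25 nM) and fluorescent phosphotyrosine peptide 5-FAM-GpYLPQTV-NH2 (2 nM) at pH 7.4. After 45 min at room temperature, FP is measured and IC50 derived by nonlinear regression.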

SMILES strings stand for the structures.

By IC50 is commonly meant the concentration that inhibits the measured activity by half.

T2 sequence (P40763 127-722): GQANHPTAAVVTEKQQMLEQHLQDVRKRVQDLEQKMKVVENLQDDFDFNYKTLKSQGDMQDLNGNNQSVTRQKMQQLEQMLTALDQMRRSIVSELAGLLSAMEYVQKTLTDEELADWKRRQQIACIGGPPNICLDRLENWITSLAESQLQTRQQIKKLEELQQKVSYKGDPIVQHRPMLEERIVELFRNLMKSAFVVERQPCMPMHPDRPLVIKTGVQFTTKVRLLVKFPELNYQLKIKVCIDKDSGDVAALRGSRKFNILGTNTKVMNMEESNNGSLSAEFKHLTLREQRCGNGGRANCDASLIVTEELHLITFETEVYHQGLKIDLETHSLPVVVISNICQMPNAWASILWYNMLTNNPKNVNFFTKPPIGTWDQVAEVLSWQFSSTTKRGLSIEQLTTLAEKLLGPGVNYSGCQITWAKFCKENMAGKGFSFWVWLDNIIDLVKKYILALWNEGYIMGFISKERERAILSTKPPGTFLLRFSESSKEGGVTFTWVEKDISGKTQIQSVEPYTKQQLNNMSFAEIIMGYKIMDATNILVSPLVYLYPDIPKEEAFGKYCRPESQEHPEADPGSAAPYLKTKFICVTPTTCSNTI

As to `O=C(N[C@H]1CCC[C@H]2CC[C@@H](C(=O)N[C@@H]3CC[C@@H](O)C3)N2C1=O)c1cc2cc(C(F)P(=O)(O)O)ccc2s1` (stereo partly drawn) [Compound 537, (fluoro(2-(((3S,6S,9aS)-3-(((1R,3R)-3-hydroxycyclopentyl)carbamoyl)-5-oxooctahydro-1H-pyrrolo[1,2-a]azepin-6-yl)carbamoyl)benzo[b]thiophen-5-yl)methyl)phosphonic acid], the IC50 in experiment [1] is 3 to 30 µM; in experiment [2], 1 to 10 µM.
Consider `O=C(N[C@H]1CCC[C@H]2CC[C@@H](C(=O)N3CC(c4nccnc4F)C3)N2C1=O)c1cc2cc(CP(=O)(O)O)ccc2s1` [Compound 538, ((2-(((3S,6S,9aS)-3-(3-(3-fluoropyrazin-2-yl)azetidine-1-carbonyl)-5-oxooctahydro-1H-pyrrolo[1,2-a]azepin-6-yl)carbamoyl)benzo[b]thiophen-5-yl)methyl)phosphonic acid], for which the values for the half-maximal inhibitory concentration (IC50) in experiment [1] and in experiment [2] were 3 to 30 µM and 1 to 10 µM, respectively.
The like results for `O=C(N[C@H]1CCC[C@H]2CC[C@@H](C(=O)N3CC(c4cnccc4O)C3)N2C1=O)c1cc2cc(CP(=O)(O)O)ccc2s1` [Compound 539, ((2-(((3S,6S,9aS)-3-(3-(4-hydroxypyridin-3-yl)azetidine-1-carbonyl)-5-oxooctahydro-1H-pyrrolo[1,2-a]azepin-6-yl)carbamoyl)benzo[b]thiophen-5-yl)methyl)phosphonic acid] were, in that order, 3 to 30 µM and less than 0.1 µM.
As to `O=C(N[C@H]1CCC[C@H]2CC[C@@H](C(=O)N3CC(c4cnccc4O)C3)N2C1=O)c1cc2cc(C(F)P(=O)(O)O)ccc2s1` (stereo partly drawn) [Compound 540, (fluoro(2-(((3S,6S,9aS)-3-(3-(4-hydroxypyridin-3-yl)azetidine-1-carbonyl)-5-oxooctahydro-1H-pyrrolo[1,2-a]azepin-6-yl)carbamoyl)benzo[b]thiophen-5-yl)methyl)phosphonic acid], the IC50 is 0.3 to 3 µM in experiment [1] and less than 0.1 µM in experiment [2].
The like results for `O=C(N[C@H]1CCC[C@H]2CC[C@@H](C(=O)N3CC(c4cc(F)ccn4)C3)N2C1=O)c1cc2cc(CP(=O)(O)O)ccc2s1` [Compound 541, ((2-(((3S,6S,9aS)-3-(3-(4-fluoropyridin-2-yl)azetidine-1-carbonyl)-5-oxooctahydro-1H-pyrrolo[1,2-a]azepin-6-yl)carbamoyl)benzo[b]thiophen-5-yl)methyl)phosphonic acid] were, in that order, 3 to 30 µM and 1 to 10 µM.
The like results for `Cn1nccc1N1CC[C@@H](NC(=O)[C@@H]2CC[C@@H]3CCCC[C@H](NC(=O)c4cc5cc(C(F)P(=O)(O)O)ccc5s4)C(=O)N32)C1` (stereo partly drawn) [Compound 542, (fluoro(2-(((3S,6S,10aS)-3-(((R)-1-(1-methyl-1H-pyrazol-5-yl)pyrrolidin-3-yl)carbamoyl)-5-oxodecahydropyrrolo[1,2-a]azocin-6-yl)carbamoyl)benzo[b]thiophen-5-yl)methyl)phosphonic acid] were, in that order, 3 to 30 µM and 1 to 10 µM.
The like results for `O=C(N[C@H]1CCC[C@H]2CC[C@@H](C(=O)N3CC(c4cc(O)ccn4)C3)N2C1=O)c1cc2cc(CP(=O)(O)O)ccc2s1` [Compound 543, ((2-(((3S,6S,9aS)-3-(3-(4-hydroxypyridin-2-yl)azetidine-1-carbonyl)-5-oxooctahydro-1H-pyrrolo[1,2-a]azepin-6-yl)carbamoyl)benzo[b]thiophen-5-yl)methyl)phosphonic acid] were, in that order, 3 to 30 µM and 1 to 10 µM.
Regarding `O=C(N[C@H]1CCC[C@H]2CC[C@@H](C(=O)N3CC(c4ccc5ncccc5c4F)C3)N2C1=O)c1cc2cc(C(F)P(=O)(O)O)ccc2s1` (stereo partly drawn) [Compound 544, (fluoro(2-(((3S,6S,9aS)-3-(3-(5-fluoroquinolin-6-yl)azetidine-1-carbonyl)-5-oxooctahydro-1H-pyrrolo[1,2-a]azepin-6-yl)carbamoyl)benzo[b]thiophen-5-yl)methyl)phosphonic acid], the IC50 in experiment [1] fell in the range of 3 to 30 µM; in experiment [2], 1 to 10 µM.
The like results for `O=Cc1ccncc1C1CN(C(=O)[C@@H]2CC[C@@H]3CCC[C@H](NC(=O)c4cc5cc(CP(=O)(O)O)ccc5s4)C(=O)N32)C1` [Compound 545, ((2-(((3S,6S,9aS)-3-(3-(4-formylpyridin-3-yl)azetidine-1-carbonyl)-5-oxooctahydro-1H-pyrrolo[1,2-a]azepin-6-yl)carbamoyl)benzo[b]thiophen-5-yl)methyl)phosphonic acid] were, in that order, 3 to 30 µM and 1 to 10 µM.
On to `O=C(N[C@H]1CCC[C@H]2CC[C@@H](C(=O)N3CC(c4cnccc4C4OCCO4)C3)N2C1=O)c1cc2cc(CP(=O)(O)O)ccc2s1` [Compound 546, ((2-(((3S,6S,9aS)-3-(3-(4-(1,3-dioxolan-2-yl)pyridin-3-yl)azetidine-1-carbonyl)-5-oxooctahydro-1H-pyrrolo[1,2-a]azepin-6-yl)carbamoyl)benzo[b]thiophen-5-yl)methyl)phosphonic acid], for which the IC50 in experiment [1] lay in the range of 3 to 30 µM; in experiment [2], 1 to 10 µM.
The like results for `CC1(c2ccccn2)CN(C(=O)[C@@H]2CC[C@@H]3CCC[C@H](NC(=O)c4cc5cc(C(F)(F)P(=O)(O)O)ccc5s4)C(=O)N32)C1` [Compound 547, (difluoro(2-(((3S,6S,9aS)-3-(3-methyl-3-(pyridin-2-yl)azetidine-1-carbonyl)-5-oxooctahydro-1H-pyrrolo[1,2-a]azepin-6-yl)carbamoyl)benzo[b]thiophen-5-yl)methyl)phosphonic acid] were, in that order, 0.3 to 3 µM and less than 0.1 µM.
As to `CC1(c2ccccn2)CN(C(=O)[C@@H]2CC[C@@H]3CCC[C@H](NC(=O)c4cc5cc(CP(=O)(O)O)ccc5s4)C(=O)N32)C1` [Compound 548, ((2-(((3S,6S,9aS)-3-(3-methyl-3-(pyridin-2-yl)azetidine-1-carbonyl)-5-oxooctahydro-1H-pyrrolo[1,2-a]azepin-6-yl)carbamoyl)benzo[b]thiophen-5-yl)methyl)phosphonic acid], the values for the IC50 in experiment [1] and in experiment [2] were 3 to 30 µM and 1 to 10 µM, respectively.
Consider `NC(=O)N1CC(NC(=O)[C@@H]2CC[C@@H]3CCCC[C@H](NC(=O)c4cc5cc(C(F)P(=O)(O)O)ccc5s4)C(=O)N32)C1` (stereo partly drawn) [Compound 549, ((2-(((3S,6S,10aS)-3-((1-carbamoylazetidin-3-yl)carbamoyl)-5-oxodecahydropyrrolo[1,2-a]azocin-6-yl)carbamoyl)benzo[b]thiophen-5-yl)fluoromethyl)phosphonic acid], for which the IC50 in experiment [1] was 3 to 30 µM; in experiment [2], less than 0.1 µM.
The like results for `CCc1ccncc1C1CN(C(=O)[C@@H]2CC[C@@H]3CCC[C@H](NC(=O)c4ccc5cc(CP(=O)(O)O)sc5c4)C(=O)N32)C1` [Compound 550, ((6-(((3S,6S,9aS)-3-(3-(4-ethylpyridin-3-yl)azetidine-1-carbonyl)-5-oxooctahydro-1H-pyrrolo[1,2-a]azepin-6-yl)carbamoyl)benzo[b]thiophen-2-yl)methyl)phosphonic acid] were, in that order, 3 to 30 µM and 0.1 to 1 µM.
In the case of `O=C(N[C@H]1CCCC[C@H]2CC[C@@H](C(=O)N[C@H]3CN(C(=O)OC4CC4)C[C@@H]3F)N2C1=O)c1cc2cc(C(F)P(=O)(O)O)ccc2s1` (stereo partly drawn) [Compound 554, ((2-(((3S,6S,10aS)-3-(((3S,4S)-1-(cyclopropoxycarbonyl)-4-fluoropyrrolidin-3-yl)carbamoyl)-5-oxodecahydropyrrolo[1,2-a]azocin-6-yl)carbamoyl)benzo[b]thiophen-5-yl)fluoromethyl)phosphonic acid], the IC50 in experiment [1] was 0.3 to 3 µM; in experiment [2] it was 1 to 10 µM.
The like results for `Cc1cccnc1N1C[C@H](NC(=O)[C@@H]2CC[C@@H]3CCCC[C@H](NC(=O)c4cc5cc(C(F)P(=O)(O)O)ccc5s4)C(=O)N32)[C@@H](F)C1` (stereo partly drawn) [Compound 555, (fluoro(2-(((3S,6S,10aS)-3-(((3S,4S)-4-fluoro-1-(3-methylpyridin-2-yl)pyrrolidin-3-yl)carbamoyl)-5-oxodecahydropyrrolo[1,2-a]azocin-6-yl)carbamoyl)benzo[b]thiophen-5-yl)methyl)phosphonic acid] were, in that order, 3 to 30 µM and 0.1 to 1 µM.
The like results for `COc1cc(F)c(C2CN(C(=O)[C@@H]3CC[C@@H]4CCC[C@H](NC(=O)c5cc6cc(CP(=O)(O)O)ccc6s5)C(=O)N43)C2)cn1` [Compound 556, ((2-(((3S,6S,9aS)-3-(3-(4-fluoro-6-methoxypyridin-3-yl)azetidine-1-carbonyl)-5-oxooctahydro-1H-pyrrolo[1,2-a]azepin-6-yl)carbamoyl)benzo[b]thiophen-5-yl)methyl)phosphonic acid] were, in that order, 3 to 30 µM and 1 to 10 µM.
